Data reported in patent publication US11643439B2, “Multi-target compound with anticoagulation and antiplatelet activity, preparation method therefor, and use thereof” (SHAANXI MICOT TECHNOLOGY LIMITED COMPANY, priority 2015, dated 2023).
Bridge positions count the residues as written; N and C are the ends. Square brackets hold non-standard residues; d marks the D form. Peptide text beside a SMILES is read from it. hArg = N=C(N)NCCCC[C@H](N)C(=O)O; Mpa = O=C(O)CCS

System: ADP-induced human platelet aggregation
Test: ADP-induced human platelet aggregation in vitro
Assay type: cell-based
Conditions: human PRP, 3 × 10−6 mol/L
Experimental: The drawn blood was centrifuged at 810 rpm for 8 minutes to obtain platelet rich plasma (PRP), which was taken out, then the blood sample was further centrifuged at 3510 rpm for 8 minutes to obtain platelet poor plasma (PPP).
Determination of platelet aggregation: A platelet aggregation instrument was started up and preheated for 30 minutes, and then calibrated with PPP. Into the test cups 270 μl of PRP was added, and then 10 μl of polypeptide 1, polypeptide 2, polypeptide 3 or polypeptide 4 (1.0×10^−7 mol/L) and/or 20 μl of physiological saline were added respectively, till a total volume of 300 μl. After incubation for 5 min, 5 μl of inducer ADP and 5 μl of epinephrine were added to start the test. After 5 minutes, the test was completed, and the maximum aggregation rate within the 5 minutes was recorded, and the data and maps were printed.

Compound: N=C(N)NCCCC[C@@H]1NC(=O)CCSSC[C@@H](C(N)=O)NC(=O)[C@@H]2CCCN2C(=O)[C@H](Cc2c[nH]c3ccccc23)NC(=O)[C@H](CC(=O)O)NC(=O)CNC1=O [Integrilin] ([Mpa][hArg]GDWPC-NH2; disulfide 1-7)
- inhibitory rate of platelet aggregation: 100%
